Test results: publication PMC7761743, “Structure and Characterization of Phosphoglucomutase 5 from Atlantic and Baltic Herring—An Inactive Enzyme with Intact Substrate Binding” (Biomolecules, 2020)

Target: T1, bPGM5 (Baltic herring PGM5) (Clupea harengus, UniProt A0A6P3VN15)
T1 construct: full length, 567 residues; codon-optimized, E. coli BL21(DE3), pNIC28-Bsa4, N-terminal TEV-cleavable His6-tag (kept in crystals, removed for DSF); monomer; Ser121 phosphorylated in crystal
Assay: X-ray crystal structure, […] Å
Format: binding
Conditions: active site; His6-tagged protein with phosphorylated Ser121, metal modelled as Ni2+; crystals soaked overnight with 5 mM glucose-1,6-bisphosphate, observed ligand is G1P; pH 6.5

T1 sequence (A0A6P3VN15 entry or part of it): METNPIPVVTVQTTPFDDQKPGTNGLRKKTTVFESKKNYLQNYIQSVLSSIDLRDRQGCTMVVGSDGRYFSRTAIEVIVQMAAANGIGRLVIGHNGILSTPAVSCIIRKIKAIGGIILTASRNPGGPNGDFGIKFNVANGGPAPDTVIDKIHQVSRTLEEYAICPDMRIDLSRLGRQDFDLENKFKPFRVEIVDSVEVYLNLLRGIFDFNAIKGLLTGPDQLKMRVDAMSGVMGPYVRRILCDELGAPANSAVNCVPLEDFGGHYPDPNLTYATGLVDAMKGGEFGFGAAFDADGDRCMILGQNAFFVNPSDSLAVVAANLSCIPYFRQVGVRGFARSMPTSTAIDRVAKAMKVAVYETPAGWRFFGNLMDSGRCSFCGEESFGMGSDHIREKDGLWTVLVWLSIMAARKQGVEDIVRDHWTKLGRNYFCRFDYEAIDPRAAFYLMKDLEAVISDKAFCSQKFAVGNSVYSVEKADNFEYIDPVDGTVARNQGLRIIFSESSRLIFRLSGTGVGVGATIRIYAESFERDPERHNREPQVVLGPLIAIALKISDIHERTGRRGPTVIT

O=P(O)(O)O[C@H]1O[C@H](CO)[C@@H](O)[C@H](O)[C@H]1O [G1P, glucose-1-phosphate]
X-ray crystal structure, 1.95 Å: the observed ligand is G1P instead of the G16P that was used in crystallization
